Laboratory results taken from ChEMBL document CHEMBL1137861, “Novel pyrazinone inhibitors of mast cell tryptase: synthesis and SAR evaluation” (Bioorg Med Chem Lett, 2004).

These compounds were tested against T1, Tryptase beta-1 (Homo sapiens, UniProt Q15661) (assay: Inhibitory activity against human Tryptase beta 2 expressed in yeast cells at 5 uM).
T1 sequence (Q15661 31-275 limits assumed): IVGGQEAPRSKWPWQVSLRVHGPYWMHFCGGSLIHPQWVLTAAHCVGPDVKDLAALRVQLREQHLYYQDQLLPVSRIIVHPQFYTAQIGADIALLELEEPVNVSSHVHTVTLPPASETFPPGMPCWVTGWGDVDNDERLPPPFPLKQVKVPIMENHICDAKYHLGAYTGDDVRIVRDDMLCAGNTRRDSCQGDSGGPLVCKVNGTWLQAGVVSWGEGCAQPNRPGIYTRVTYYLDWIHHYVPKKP
Assay type: cell-based
Cc1c(Cl)nc(N[C@H]2CC[C@H](N)CC2)c(=O)n1CC(=O)NCCc1c[nH]cn1 showed an inhibition of 8%. For Cc1c(Cl)nc(N[C@H]2CC[C@H](N)CC2)c(=O)n1CC(=O)NC1CCC(N)CC1 (some centres undefined), the inhibition was 2%. Work on Cc1c(Cl)nc(N[C@H]2CC[C@H](N)CC2)c(=O)n1CC(=O)Nc1ccc(CN)cc1 yielded an inhibition of 16%. For Cc1c(Cl)nc(N[C@H]2CC[C@H](N)CC2)c(=O)n1CC(=O)Nc1cccc(N)c1, the inhibition was 7%. With Cc1c(Cl)nc(N[C@H]2CC[C@H](N)CC2)c(=O)n1CC(=O)Nc1ccc(C(N)=O)cc1 the inhibition was 31%. With Cc1c(Cl)nc(N[C@H]2CC[C@H](N)CC2)c(=O)n1CC(=O)Nc1ccc(N)cc1 the inhibition was 29%. Cc1c(Cl)nc(N[C@H]2CC[C@H](N)CC2)c(=O)n1CC(=O)Nc1cccc(C(N)=O)c1 showed an inhibition of 18%.

What follows are compounds tested against T1, Tryptase beta-1 (assay: Inhibitory activity against human Tryptase beta 2 expressed in yeast cells at 5 uM; not active).
Assay type: cell-based
With Cc1c(Cl)nc(Nc2cccc(Cl)c2)c(=O)n1CC(=O)Nc1cccc(CN)c1 the inhibition was 11%. Cc1c(Cl)nc(Nc2ccc(F)cc2)c(=O)n1CC(=O)Nc1cccc(CN)c1 showed an inhibition of 24%.
